In US20230399317A1, “COMPOUNDS AND METHODS FOR THE TREATMENT OF OCULAR DISORDERS” (Azura Ophthalmics Ltd., priority 2020, published 2023):
Blank lines part the entries; values can stand above or below the compound they belong to.

Experiments:
[1] = Rabbit Cornea Homogenate stability (esterase) assay, Method 2; format: in vitro ADME; details: for Esterase % Lifitegrast formation at 45 min: 37° C., Method 2 (DPBS pH 7.4); for API Formation rate (%/min): Method 2
Procedure: (§1) Determining Rabbit Cornea Homogenate stability of the test compounds was performed using HPLC-MS or UPLC-MS. The assay was performed at two concentrations of Rabbit Cornea Homogenate (0.15 mg/mL and 0.45 mg/mL total protein) so that any hydrolysis observed can be assigned as esterase dependent or not.
(§2) Three to five rabbit corneas (e.g. New Zealand Whites (NZW) or Dutch Belted (DB)) of approx. 50 mg each were sliced and scraped with a scalpel and tweezers until reduced to small (1-3 mm), thin pieces. These were transferred into a glass vial containing approximately 2 mL of cold DPBS pH 7.4 buffer.
(§3) Sample was cooled intermittently on ice and shear homogenized for 3 minutes, then centrifuged for 3 min at 13,000 g. The supernatant was pipetted off into a vial, and total protein concentration determined at 280 nm. Sample was stored at −78° C.
10 mM Compound DMSO stocks were diluted to 10 μM in a glass vial: 10 μL of 10 mM Compound stock was added to 9,990 μL DPBS, pH 7.4 buffer. Esterase homogenate was diluted to 300 ng/μL and 900 ng/μL in DPBS. […]
A heater shaker was set to 37° C. Into a suitable 96 well plate (Run Plate), 80 μL of 300 or 900 ng/μL esterase homogenate was pipetted into two rows as compounds were analyzed in duplicate (0 min, 2 min, 5 min, 10 min, 20 min and 45 min). The plate was sealed and then warmed at 37° C. for 5 min.
Two 96 shallow-well plates were placed on ice (Kill Plates). To these, 180 μL of 60:40 MeCN-H2O+0.1% acetic acid were added to required rows. The plates were sealed to minimise evaporation.
To both rows of the Run Plate, 80 μL of 10 μM compound solution was added. At the appropriate time point, 20 μL of the assay mixture was added to the matching kill plate well containing 180 μL of 60:40 cold MeCN-H2O+0.1% acetic acid. For lipoic acid analysis, samples were analysed as soon as practicable by LCMS (Waters Xevo TQ-S). For parent conjugate and parent analysis the samples were diluted further 1 in 10: 20 μL supernatant was added to 180 μL of 50:50 MeCN—H2O.
Parent conjugate, parent and keratolytic concentrations were determined against appropriate standard response curves and the half-life (T½) of the parent conjugate was calculated using the peak area or the measured concentration of the parent conjugate at each time point in the linear region of the log-linear plot.

[2] = Aqueous hydrolysis stability assay, Method 2; format: physicochemical; details: Method 2: DPBS pH 7.4, 37° C.
Procedure: (§4) Determination of aqueous stability of the test compounds was performed using HPLC-MS or UPLC-MS. A test compound 10 mM stock solution was prepared in DMSO. Half-life (T1/2) of the parent conjugate is calculated using the peak area of the parent conjugate at each time point in the linear region of the log-linear plot.
10 μL of the DMSO stock solution is dissolved in 990 μL of DPBS pH 7.4 buffer to prepare 100 μM solution. A further dilution is made by dissolving 75 μL of 100 μM stock solution into 225 μL of DPBS. Final DMSO concentration is 0.25%. The solution is kept at 37° C. and injected without delay into the LCMS (Waters Xevo XSQ-ToF). Additional injections are performed at appropriate time points.

[3] = tested on: patients with dry eye and delayed tear clearance; details: 0.5% ophthalmic suspension, QID, 4 weeks, 64 patients (Pflugfelder et al 2004); cited from earlier work
[4] = Rabbit Cornea Homogenate stability (esterase) assay, Method 1; format: in vitro ADME; details: for Esterase % Lifitegrast formation at 45 min: 37° C., Method 1 (50 mM HEPES pH 7.5); for Esterase % keratolytic agent formation at 45 min / API Formation rate (%/min): Method 1
Procedure: as §1, §2, §3
10 mM Compound stocks were diluted to 100 μM in a 96 deep-well plate: 10 μL of 10 mM Compound stock was added to 990 μL 50 mM HEPES, pH 7.5 buffer. Compounds were further diluted to 10 μM: 100 μL of 100 μM compound was added to 900 μL 50 mM HEPES, pH 7.5 buffer. Esterase homogenate was diluted to 300 ng/μL and 900 ng/μL.
A heater shaker was set to 37° C. Into a suitable 96 well plate (Run Plate), 75 μL of 300 or 900 ng/μL esterase homogenate was pipetted into each of the required wells (2 min, 5 min, 10 min, 20 min and 45 min). The plate was sealed and then warmed at 37° C. for 5 min.
Another 96 well PCR plate was put on ice (Kill Plate). To this was added 100 μL of MeCN to each well, labelled 0 min 2 min, 5 min, 10 min, 20 min and 45 min. The plate was covered to minimize evaporation.
For the T=0 sample only, to the 100 μL cold MeCN stop solution was added 50 μL of 300 or 900 ng/μL esterase homogenate followed by 50 μL of 10 μM compound solution. For the remaining timepoints, 75 μL of 10 μM compound solution was added to the Run Plate starting from T=45 min row and ending with T=2 min row. At the appropriate time point, 100 μL of the assay mixture was added to the matching kill plate well containing 100 μL of cold MeCN. Samples were analyzed as soon as practicable by LCMS (Waters Xevo TQ-S or Micromass Ultima).
Parent conjugate and parent concentrations were determined against appropriate standard response curves and the half-life (T½) of the parent conjugate was calculated using the peak area of the parent conjugate at each time point in the linear region of the log-linear plot.

[5] = Aqueous hydrolysis stability assay, Method 1; format: physicochemical; details: 45 min; Method 1: 50 mM HEPES pH 7.5 or 1:1 acetonitrile:water, room temperature
Procedure: as §4
10 μL of the DMSO stock solution was dissolved in 990 μL of 50 mM HEPES pH 7.5 buffer or 1:1 (v/v) of acetonitrile:water to make a 100 μM solution. Final DMSO concentration was 1%. The solution was kept at room temperature and injected without delay into the LCMS (Waters Xevo TQ-S or Micromass Ultima). Additional injections were performed at appropriate time points.

human T-cell line = details: in vitro; cited from earlier work
[6] = tested on: human peripheral blood mononuclear cells; details: in vitro; cited from earlier work
[7] = Cornea Homogenate Conc 0.15 mg/mL
[8] = Cornea Homogenate Conc 0.45 mg/mL

Compound: CCOC(=O)O[C@]1(C(=O)OCCl)CC[C@H]2[C@@H]3CCC4=CC(=O)C=C[C@]4(C)[C@H]3[C@@H](O)C[C@@]21C [loteprednol etabonate]
- improving some signs and symptoms versus vehicle [3]: more effective than its vehicle

Compound: CS(=O)(=O)c1cccc(C[C@H](NC(=O)c2c(Cl)cc3c(c2Cl)CCN(C(=O)c2ccc4ccoc4c2)C3)C(=O)O)c1 [lifitegrast]
- inhibition of T-cell adhesion to ICAM-1 (human T-cell line): may inhibit T-cell adhesion to ICAM-1
- inhibition of secretion of inflammatory cytokines [6]: may inhibit secretion of inflammatory cytokines

Now from value to compound, other results behind:

- Esterase % Lifitegrast formation at 45 min [1, 7]: D (percent API formation >75%)
- API Formation rate (%/min) [1, 7]: d (API formation rate >1.5%/min)
- Esterase % Lifitegrast formation at 45 min [1, 8]: D (percent API formation >75%)
- API Formation rate (%/min) [1, 8]: d (API formation rate >1.5%/min)
- Hydrolytic % Lifitegrast formation at [time] ([2]; 60 min): C [60 min] (percent API formation >4%)
Compound: CC(=O)SCC(=O)OC(C)OC(=O)[C@H](Cc1cccc(S(C)(=O)=O)c1)NC(=O)c1c(Cl)cc2c(c1Cl)CCN(C(=O)c1ccc3ccoc3c1)C2 (some centres unmarked) [Compound 31]

- Esterase % Lifitegrast formation at 45 min [1, 7]: C (percent API formation 51% to 75%)
- API Formation rate (%/min) [1, 7]: c (API formation rate 1.0-1.5%/min)
- Esterase % Lifitegrast formation at 45 min [1, 8]: C (percent API formation 51% to 75%)
- API Formation rate (%/min) [1, 8]: c (API formation rate 1.0-1.5%/min)
- Hydrolytic % Lifitegrast formation at [time] ([2]; 44 min): C [44 min] (percent API formation >4%)
Compound: CC(OC(=O)CCC(=O)O)OC(=O)[C@H](Cc1cccc(S(C)(=O)=O)c1)NC(=O)c1c(Cl)cc2c(c1Cl)CCN(C(=O)c1ccc3ccoc3c1)C2 (some centres unmarked) [Compound 45]

- API Formation rate (%/min) [4, 7]: a (API formation rate <0.5%/min)
- API Formation rate (%/min) [4, 8]: a (API formation rate <0.5%/min)
- Hydrolytic % Lifitegrast formation at [time] [5]: C [45 min] (percent API formation >4%)
Compound: CC(=O)N[C@@H](CS)C(=O)OC(C)OC(=O)[C@H](Cc1cccc(S(C)(=O)=O)c1)NC(=O)c1c(Cl)cc2c(c1Cl)CCN(C(=O)c1ccc3ccoc3c1)C2 (some centres unmarked) [Compound 5]
- Esterase % Lifitegrast formation at 45 min [4, 7]: A (percent active pharmaceutical ingredient (API) formation <25%)
- Esterase % keratolytic agent formation at 45 min [4, 7]: A (percent active pharmaceutical ingredient (API) formation <25%)
- Esterase % Lifitegrast formation at 45 min [4, 8]: A (percent active pharmaceutical ingredient (API) formation <25%)
- Esterase % keratolytic agent formation at 45 min [4, 8]: A (percent active pharmaceutical ingredient (API) formation <25%)
